Experimental data taken from patent publication US11020358B2, “Method for the anti-senescence of and/or rejuvenating stem cells” (GWO XI STEM CELL APPLIED TECHNOLOGY CO., LTD., priority 2014, dated 2021).

What was measured:
Assay type in all cases: cell-based, human
ADSCs [1] = assay: Flow cytometry of surface antigens of ADSCs; details: compared to untreated group
Experimental: (§1) Four portions of equal volume of the above culture medium containing the sub-cultured ADSCs were separately handled by adding thereinto H2O2 (purchased from Sigma-Aldrich) at a final concentration of 100 μM and reacting for 2 hours to induce senescence of the ADSCs, replacing the culture medium with a fresh culture medium, adding thereinto TC (trans-cinnamaldehyde, purchased from Sigma-Aldrich) at a final concentration of 0, 2, 4 or 6 μM and reacting for 6 hours, so as to obtain “H2O2 group (i.e., treated with H2O2 for 2 hours, but not treated with TC),” “H2O2+TC2 group (i.e., treated with H2O2 for 2 hours and then treated with 2 μM of TC for 6 hours),” “H2O2+TC4 group (i.e., treated with H2O2 for 2 hours and then treated with 4 μM of TC for 6 hours),” and “H2O2+TC6 group (i.e., treated with H2O2 for 2 hours and then treated with 6 μM of TC for 6 hours)” ADSCs.
Four portions of equal volume of the above culture medium containing the sub-cultured ADSCs were handled by adding thereinto TC at final concentrations of 0, 2, 4 and 6 μM respectively, and reacting for 6 hours to obtain “untreated group (i.e., without any treatment),” “TC2 group (i.e., treated only with 2 μM of TC),” “TC4 group (i.e., treated only with 4 μM of TC)” and “TC6 group (i.e., treated only with 6 μM of TC)” ADSCs. […]

ADSCs [2] = assay: SA-β-gal activity assay in ADSCs
Experimental: as §1
Four portions of equal volume of the above culture medium containing the sub-cultured ADSCs were handled by adding thereinto TC at final concentrations of 0, 2, 4 and 6 μM respectively, and reacting for 6 hours to obtain “untreated group (i.e., without any treatment),” “TC2 group (i.e., treated only with 2 μM of TC),” “TC4 group (i.e., treated only with 4 μM of TC)” and “TC6 group (i.e., treated only with 6 μM of TC)” ADSCs.
It has been known that senescent cells in acidic environment (e.g., pH 6.0) show the activity of SA-β-gal. Therefore, the senescence level of cells can be reflected by measuring the expression level of SA-β-gal in the cells.
(§2) The ADSCs in each sample of the group obtained from Example 1 (1) were washed with PBS twice, fixed with 3% formaldehyde and washed with PBS once. […]
The staining solution was removed. […] The cells were observed and photographed under a microscope with 10-fold magnification, and the percentage of SA-β-gal activity-positive cells was calculated.

telomerase = assay: Telomerase activity assay (TRAP) in ADSCs
Experimental: It has been know that the activity of telomerase plays a key role in controlling cell senescence. The activity of telomerase in each of the “untreated group,” “H2O2 group” and “TC6 group” ADSCs from Example 1 (1) was analyzed by Telomeric Repeat Amplification Protocol (TRAP) as follows. The 3′-end primer of telomere (i.e., Telo TAGGG) was extended by PCR under the catalysis of telomerase to amplify the TTAGGG repeat sequence. Then, signals of the product were detected by enzyme-linked immunosorbent assay (ELISA). The results are shown in FIG. 7, wherein the activity of telomerase in HEK293 cells (without any treatment) was served as a positive control group.

hBMMSCs = assay: SA-β-gal activity assay in hBMMSCs
Experimental: Three portions of equal volume of the above culture medium containing the sub-cultured hBMMSCs were provided. The first and second portions were handled by adding thereinto H2O2 at a final concentration of 100 μM, reacting for 2 hours to induce senescence of the hBMMSCs, replacing the culture medium with a fresh culture medium, adding thereinto TC at final concentrations of 0 and 6 μM respectively, and reacting for 6 hours to obtain “H2O2 group (i.e., treated with H2O2 for 2 hours, but not treated with TC)” and “H2O2+TC6 group (i.e., treated with H2O2 for 2 hours and then treated with 6 μM of TC for 6 hours) hBMMSCs. The third portion without any treatment was referred to as “untreated group” hBMMSCs.
as §2
The staining solution was removed. […] The cells were observed and photographed under a microscope with 10-fold magnification, and the percentage of SA-β-gal activity-positive cells was calculated. […]

SIRT1 gene = assay: Quantitative RT-PCR of SIRT1 gene in hBMMSCs
Experimental: Three portions of equal volume of the above culture medium containing the sub-cultured hBMMSCs were provided. The first and second portions were handled by adding thereinto H2O2 at a final concentration of 100 μM, reacting for 2 hours to induce senescence of the hBMMSCs, replacing the culture medium with a fresh culture medium, adding thereinto TC at final concentrations of 0 and 6 μM respectively, and reacting for 6 hours to obtain “H2O2 group (i.e., treated with H2O2 for 2 hours, but not treated with TC)” and “H2O2+TC6 group (i.e., treated with H2O2 for 2 hours and then treated with 6 μM of TC for 6 hours) hBMMSCs. The third portion without any treatment was referred to as “untreated group” hBMMSCs. […]
Each of the cDNA of ADSCs of different groups from Experiment (3-1) was handled as follows. […] The mixture was then placed in a real-time quantitative PCR machine (ABI prism 7700 sequence detection system) to perform a reaction for quantifying the gene expression levels. […]
The steps as shown in Experiment (3-2) were repeated, but the cDNA was substituted with the cDNA of the BMMSCs or WJSCs from Experiment (3-1) to conduct quantitative RT-PCR.

activity of telomerase (telomerase; H2O2 group ADSCs compared to untreated group) | SMILES | expression phenotypes of the surface antigens (ADSCs [1]; 100 μM H2O2 2 h then 6 μM TC 6 h (H2O2+TC6 group)) | number of the SA-β-gal activity-positive cells (ADSCs [2]; H2O2-senescent ADSCs, 2, 4 and 6 μM TC 6 h, compared to H2O2 group) | number of the SA-β-gal activity-positive cells (ADSCs [2]; non-senescent ADSCs, 2, 4 and 6 μM TC 6 h, compared to untreated group) | activity of telomerase (telomerase; ADSCs, 6 μM TC (“TC6 group”), compared to H2O2 group) | number of the SA-β-gal activity-positive hBMMSCs (hBMMSCs; H2O2+TC6 group (6 μM TC 6 h after H2O2) compared to H2O2 group) | expression level of SIRT1 gene in hBMMSCs (SIRT1 gene; H2O2+TC6 group compared to H2O2 group) | expression phenotypes of the surface antigens (ADSCs [1]; 100 μM H2O2 2 h (H2O2 group)) | number of the SA-β-gal activity-positive cells (ADSCs [2]; ADSCs, 100 μM H2O2 2 h, compared to untreated group) | number of the SA-β-gal activity-positive hBMMSCs (hBMMSCs; H2O2 group (100 μM 2 h) compared to untreated group) | expression level of SIRT1 gene in hBMMSCs (SIRT1 gene; H2O2 group compared to untreated group)
 | O=C/C=C/c1ccccc1 [TC, trans-cinnamaldehyde] | not significantly changed | significantly reduced | significantly reduced along with the increment in the concentration of TC | significantly increased | significantly reduced | significantly increased |  |  |  | 
significantly decreased | OO [H2O2, reference compound] |  |  |  |  |  |  | not significantly changed | significantly increased | significantly increased | significantly reduced
